Results reported in patent US9714236B2, “Compounds and methods for inhibiting JAK” (AstraZeneca AB, priority 2015, dated 2017).

Assays:
Type in all cases: biochemical
[1] = target: recombinant JAK1 (amino acids 866-1154) (Homo sapiens (Human), UniProt P23458); test: Enzyme inhibition studies, JAK1 (peptide phosphorylation, Caliper LC3000); conditions: ATP concentration not given (assayed at ATP Km 55 μM and at 5 mM)
Description: (§1) Enzyme inhibition studies were performed using recombinant JAK1 (amino acids 866-1154, Life Technologies, #PV4774, Carlsbad, Calif.), JAK2 (amino acids 831-1132), or JAK3 (amino acids 781-1124) under buffer conditions of 50 mM HEPES pH 7.3, 1 mM DTT, 0.01% Tween® 20, 50 μg/mL BSA, and 10 mM MgCl2. JAK enzyme was expressed as an N-terminal GST fusion in insect cells and purified by glutathione-affinity and size-exclusion chromatographies. […] Phosphorylated and unphosphorylated peptides were separated and quantified by a Caliper LC3000 system (Caliper Life Sciences, MA) for calculating percent inhibition.

[2] = target: recombinant JAK2 (amino acids 831-1132) (Homo sapiens (Human), UniProt O60674); test: Enzyme inhibition studies, JAK2 (peptide phosphorylation, Caliper LC3000); conditions: ATP concentration of the tabulated values not stated (assayed at ATP Km 15 μM and at 5 mM)
Sequence of recombinant JAK2 (amino acids 831-1132) (O60674 831-1132): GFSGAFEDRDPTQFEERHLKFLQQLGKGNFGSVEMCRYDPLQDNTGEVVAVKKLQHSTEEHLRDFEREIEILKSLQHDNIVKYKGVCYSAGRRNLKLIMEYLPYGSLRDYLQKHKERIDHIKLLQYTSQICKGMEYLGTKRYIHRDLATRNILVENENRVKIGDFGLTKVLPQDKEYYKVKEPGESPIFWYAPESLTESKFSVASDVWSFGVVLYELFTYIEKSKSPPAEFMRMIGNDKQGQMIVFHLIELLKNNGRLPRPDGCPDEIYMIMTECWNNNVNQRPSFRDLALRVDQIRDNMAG
Description: as §1

[3] = target: recombinant JAK3 (amino acids 781-1124) (Homo sapiens (Human), UniProt P52333); test: Enzyme inhibition studies, JAK3 (peptide phosphorylation, Caliper LC3000); conditions: ATP concentration of the tabulated values not stated (assayed at ATP Km 3 μM and at 5 mM)
Sequence of recombinant JAK3 (amino acids 781-1124) (P52333 781-1124): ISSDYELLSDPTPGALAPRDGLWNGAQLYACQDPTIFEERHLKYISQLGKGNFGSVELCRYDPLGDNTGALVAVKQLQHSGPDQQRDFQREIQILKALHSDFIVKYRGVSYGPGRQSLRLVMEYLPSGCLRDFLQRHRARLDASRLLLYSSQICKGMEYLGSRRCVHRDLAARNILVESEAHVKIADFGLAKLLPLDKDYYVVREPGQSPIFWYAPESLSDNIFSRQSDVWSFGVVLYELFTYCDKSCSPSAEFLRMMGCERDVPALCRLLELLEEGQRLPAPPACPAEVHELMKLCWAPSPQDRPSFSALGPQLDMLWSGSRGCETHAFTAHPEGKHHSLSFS
Description: as §1

Sequence of recombinant JAK1 (amino acids 866-1154) (P23458 866-1154): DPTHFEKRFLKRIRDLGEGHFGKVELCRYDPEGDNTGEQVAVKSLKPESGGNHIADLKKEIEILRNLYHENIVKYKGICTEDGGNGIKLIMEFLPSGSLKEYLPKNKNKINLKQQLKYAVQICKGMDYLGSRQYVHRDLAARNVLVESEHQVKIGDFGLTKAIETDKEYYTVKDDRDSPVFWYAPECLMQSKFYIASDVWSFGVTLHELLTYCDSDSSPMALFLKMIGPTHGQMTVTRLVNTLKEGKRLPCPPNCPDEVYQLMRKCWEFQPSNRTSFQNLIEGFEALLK

SMILES | IC50 [1] [nM] | IC50 [2] [µM] | IC50 [3] [µM]
COc1nn(C)cc1Nc1nccc(-c2c[nH]c3c(NC(=O)[C@@H](C)N4CCN(C)C[C@@H]4C)cccc23)n1 [Example 1, (2R)-2-[(2S)-2,4-dimethylpiperazin-1-yl]-N-(3-{2-[(3-methoxy-1-methyl-1H-pyrazol-4-yl)amino]pyrimidin-4-yl}-1H-indol-7-yl)propanamide] | 847 | – | –
COc1nn(C)cc1Nc1ncc(F)c(-c2c[nH]c3c(NC(=O)[C@@H](C)N4CCN(C)[C@H](C)C4)cccc23)n1 [Example 2, (2R)-2-[(3R)-3,4-dimethylpiperazin-1-yl]-N-(3-{5-fluoro-2-[(3-methoxy-1-methyl-1H-pyrazol-4-yl)amino]pyrimidin-4-yl}-1H-indol-7-yl)propanamide] | 85 | 12.8 | > 30
COCCN1CCN([C@H](C)C(=O)Nc2cccc3c(-c4nc(Nc5cn(C)nc5OC)ncc4F)c[nH]c23)CC1 [Example 3, (2R)-N-(3-{5-fluoro-2-[(3-methoxy-1-methyl-1H-pyrazol-4-yl)amino]pyrimidin-4-yl}-1H-indol-7-yl)-2-[4-(2-methoxyethyl)piperazin-1-yl]propanamide] | 191 | 26.8 | > 30
CCN1CCN([C@H](C)C(=O)Nc2cccc3c(-c4nc(Nc5cn(C)nc5OC)ncc4F)c[nH]c23)CC1 [Example 4, (2R)-2-(4-ethylpiperazin-1-yl)-N-(3-{5-fluoro-2-[(3-methoxy-1-methyl-1H-pyrazol-4-yl)amino]pyrimidin-4-yl}-1H-indol-7-yl)propanamide] | 43 | 6.57 | > 30
COc1nn(C)cc1Nc1ncc(F)c(-c2c[nH]c3c(NC(=O)[C@@H](C)N4CCN(C)[C@@H](C)C4)cccc23)n1 [Example 5, (2R)-2-[(3S)-3,4-dimethylpiperazin-1-yl]-N-(3-{5-fluoro-2-[(3-methoxy-1-methyl-1H-pyrazol-4-yl)amino]pyrimidin-4-yl}-1H-indol-7-yl)propanamide] | 24 | 10.4 | > 30
COc1nn(C)cc1Nc1ncc(F)c(-c2c[nH]c3c(NC(=O)[C@@H](C)N4CCN(C)C[C@H]4C)cccc23)n1 [Example 6] | 30 | 9.62 | > 30
COc1nn(C)cc1Nc1ncc(F)c(-c2c[nH]c3c(NC(=O)[C@@H](C)N4CCN(C)C[C@@H]4C)cccc23)n1 [Example 7a, (2R)-2-[(2S)-2,4-dimethylpiperazin-1-yl]-N-(3-{5-fluoro-2-[(3-methoxy-1-methyl-1H-pyrazol-4-yl)amino]pyrimidin-4-yl}-1H-indol-7-yl)propanamide] | 359 | > 30 | > 30
COc1nn(C)cc1Nc1ncc(F)c(-c2c[nH]c3c(NC(=O)[C@H](C)N4CCN(C)C[C@@H]4C)cccc23)n1 [Example 7b, (2S)-2-[(2S)-2,4-dimethylpiperazin-1-yl]-N-(3-{5-fluoro-2-[(3-methoxy-1-methyl-1H-pyrazol-4-yl)amino]pyrimidin-4-yl}-1H-indol-7-yl)propanamide] | 3600 | > 30 | > 30
CCOc1nn(C)cc1Nc1ncc(F)c(-c2c[nH]c3c(NC(=O)[C@@H](C)N4CCN(CC)CC4)cccc23)n1 [Example 8, (2R)-N-(3-{2-[(3-ethoxy-1-methyl-1H-pyrazol-4-yl)amino]-5-fluoropyrimidin-4-yl}-1H-indol-7-yl)-2-(4-ethylpiperazin-1-yl)propanamide] | 110 | 23.6 | > 30
CCOc1nn(C)cc1Nc1ncc(F)c(-c2c[nH]c3c(NC(=O)[C@@H](C)N4CCN(CCOC)CC4)cccc23)n1 [Example 9, (2R)-N-(3-{2-[(3-ethoxy-1-methyl-1H-pyrazol-4-yl)amino]-5-fluoropyrimidin-4-yl}-1H-indol-7-yl)-2-[4-(2-methoxyethyl)piperazin-1-yl]propanamide] | 426 | > 30 | > 30
CCOc1nn(C)cc1Nc1ncc(F)c(-c2c[nH]c3c(NC(=O)[C@@H](C)N4CCN(C)C[C@@H]4C)cccc23)n1 [Example 10a, (2R)-2-[(2S)-2,4-dimethylpiperazin-1-yl]-N-(3-{2-[(3-ethoxy-1-methyl-1H-pyrazol-4-yl)amino]-5-fluoropyrimidin-4-yl}-1H-indol-7-yl)propanamide] | 846 | – | –
CCOc1nn(C)cc1Nc1ncc(F)c(-c2c[nH]c3c(NC(=O)[C@H](C)N4CCN(C)C[C@@H]4C)cccc23)n1 [Example 10b, (2S)-2-[(2S)-2,4-dimethylpiperazin-1-yl]-N-(3-{2-[(3-ethoxy-1-methyl-1H-pyrazol-4-yl)amino]-5-fluoropyrimidin-4-yl}-1H-indol-7-yl)propanamide] | 7600 | – | –
CCOc1nn(C)cc1Nc1ncc(F)c(-c2c[nH]c3c(NC(=O)[C@@H](C)N4CCN(C)[C@@H](C)C4)cccc23)n1 [Example 11a, (2R)-2-[(3S)-3,4-dimethylpiperazin-1-yl]-N-(3-{2-[(3-ethoxy-1-methyl-1H-pyrazol-4-yl)amino]-5-fluoropyrimidin-4-yl}-1H-indol-7-yl)propanamide] | 40 | > 30 | > 30
CCOc1nn(C)cc1Nc1ncc(F)c(-c2c[nH]c3c(NC(=O)[C@H](C)N4CCN(C)[C@@H](C)C4)cccc23)n1 [Example 11b, (2S)-2-[(3S)-3,4-dimethylpiperazin-1-yl]-N-(3-{2-[(3-ethoxy-1-methyl-1H-pyrazol-4-yl)amino]-5-fluoropyrimidin-4-yl}-1H-indol-7-yl)propanamide] | 1850 | > 30 | > 30
CCOc1nn(C)cc1Nc1ncc(F)c(-c2c[nH]c3c(NC(=O)[C@@H](C)N4CCN(C)C[C@H]4C)cccc23)n1 [Example 12, (2R)-2-[(2R)-2,4-dimethylpiperazin-1-yl]-N-(3-{2-[(3-ethoxy-1-methyl-1H-pyrazol-4-yl)amino]-5-fluoropyrimidin-4-yl}-1H-indol-7-yl)propanamide] | 68 | – | –
CCOc1nn(C)cc1Nc1ncc(F)c(-c2c[nH]c3c(NC(=O)[C@@H](C)N4CCN(C)[C@H](C)C4)cccc23)n1 [Example 13, (2R)-2-[(3R)-3,4-dimethylpiperazin-1-yl]-N-(3-{2-[(3-ethoxy-1-methyl-1H-pyrazol-4-yl)amino]-5-fluoropyrimidin-4-yl}-1H-indol-7-yl)propanamide] | 166 | > 30 | > 30
COc1nn(C)cc1Nc1ncc(C)c(-c2c[nH]c3c(NC(=O)[C@@H](C)N4CCN(C)[C@@H](C)C4)cccc23)n1 [Example 14, (2R)-2-[(3S)-3,4-dimethylpiperazin-1-yl]-N-(3-{2-[(3-methoxy-1-methyl-1H-pyrazol-4-yl)amino]-5-methylpyrimidin-4-yl}-1H-indol-7-yl)propanamide] | 9 | 6.39 | > 30
COc1nn(C)cc1Nc1ncc(C)c(-c2c[nH]c3c(NC(=O)[C@@H](C)N4CCN(CCO)CC4)cccc23)n1 [Example 15, (2R)-2-[4-(2-hydroxyethyl)piperazin-1-yl]-N-(3-{2-[(3-methoxy-1-methyl-1H-pyrazol-4-yl)amino]-5-methylpyrimidin-4-yl}-1H-indol-7-yl)propanamide] | 7 | 2.53 | > 30
CCN1CCN([C@H](C)C(=O)Nc2cccc3c(-c4nc(Nc5cn(C)nc5OC)ncc4C)c[nH]c23)CC1 [Example 16, (2R)-2-(4-ethylpiperazin-1-yl)-N-(3-{2-[(3-methoxy-1-methyl-1H-pyrazol-4-yl)amino]-5-methylpyrimidin-4-yl}-1H-indol-7-yl)propanamide] | 19 | 6.24 | > 30
COCCN1CCN([C@H](C)C(=O)Nc2cccc3c(-c4nc(Nc5cn(C)nc5OC)ncc4C)c[nH]c23)CC1 [Example 17, (2R)-2-[4-(2-methoxyethyl)piperazin-1-yl]-N-(3-{2-[(3-methoxy-1-methyl-1H-pyrazol-4-yl)amino]-5-methylpyrimidin-4-yl}-1H-indol-7-yl)propanamide] | 107 | 18.1 | > 30
COc1nn(C)cc1Nc1nccc(-c2c[nH]c3c(NC(=O)[C@@H](C)N4CCN(C)C[C@H]4C)cccc23)n1 [Example 29, (2R)-2-[(2R)-2,4-dimethylpiperazin-1-yl]-N-(3-{2-[(3-methoxy-1-methyl-1H-pyrazol-4-yl)amino]pyrimidin-4-yl}-1H-indol-7-yl)propanamide] | 97 | – | –
CC[C@H](C(=O)Nc1cccc2c(-c3nc(Nc4cn(C)nc4OC)ncc3F)c[nH]c12)N1CCN(C)CC1 [Example 51, (2R)-N-(3-{5-fluoro-2-[(3-methoxy-1-methyl-1H-pyrazol-4-yl)amino]pyrimidin-4-yl}-1H-indol-7-yl)-2-(4-methylpiperazin-1-yl)butanamide] | < 3 | – | –
CC[C@@H](C(=O)Nc1cccc2c(-c3nc(Nc4cn(C)nc4OC)ncc3F)c[nH]c12)N1CCN(C)CC1 [Example 52, (2S)-N-(3-{5-fluoro-2-[(3-methoxy-1-methyl-1H-pyrazol-4-yl)amino]pyrimidin-4-yl}-1H-indol-7-yl)-2-(4-methylpiperazin-1-yl)butanamide] | 296 | – | –
